Earlier results in patent US20040102462A1, “2-(2-amino-1,6-dihydro-6-oxo-purin-9-yl) methoxy-1,3-propanediol derivative” (priority 1994, published 2004).

Conditions: rats; % of the acyclovir dosed

acyclovir recovered in the urinary recovery assay: 19%
SMILES: Nc1nc2c(ncn2COCCO)c(=O)[nH]1 [acyclovir, 2-(2-amino-1,6-dihydro-6-oxo-1,6-dihydro-purin-9-yl)methoxy-ethanol]
